This is an account of results in patent EP0791603A2, “Pure somatostatin antagonist and methods of use thereof” (American Cyanamid Company, priority 1996, dated 1997).

Positions of bridges follow the written chain, without caps; N, C: chain ends. Non-standard residues stand in square brackets, D forms with d. Residues, ends and D or L forms follow the SMILES beside them. Phe(4-NO2) = N[C@@H](Cc1ccc([N+](=O)[O-])cc1)C(=O)O; dPhe(4-NO2) = N[C@H](Cc1ccc([N+](=O)[O-])cc1)C(=O)O; 2Nal = N[C@@H](Cc1ccc2ccccc2c1)C(=O)O; Orn = NCCC[C@H](N)C(=O)O

Test [1] addresses SSTR2 (Rattus norvegicus, UniProt P30680). Nature of the test: Competitive binding, displacement of [125I]Tyr11 S-14. Also noted: expressed in transfected cells. To be noted: [125I]Tyr11 S-14 250 pM, room temperature 2 hours; for IC50: membrane protein, read-out: SSTR2 Binding Affinity IC50; for Ki: calculated by Cheng and Prusoff, read-out: SSTR2 Binding Affinity Ki. Here is the method:
In this evaluation the concentration of test compound required to displace 50% of somatostatin, SRIF, from the SRIF receptor subtypes expressed in mammalian cells is measured, i.e., the concentration required to inhibit 50% of [^125I] Tyr^11 S-14 (Amersham) (IC50) from binding to the SRIF receptor subtypes.
Radiolabeled SRIF is mixed with pituitary cells, the test compound is added, the mixture is incubated and the radioactivity is measured as compared to control. Reduced radioactivity indicates successful competitive binding of the test compound to the pituitary cell receptor. The concentration of the test compound in nanomolar units required to displace 50% of SRIF from the pituitary cell receptor is calculated and reported in Table II as the IC50 value. Also calculated is the inhibitory constant, Ki.
Tyr^11S-14 (150,000 cpm at 2000 Ci/mmole, 250 pM final concentration). The binding reaction is initiated by adding 2-60µg of membrane protein in a 170 µL volume. Final reaction volume is 200 µl/well. All incubations are carried out at room temperature for 2 hours. Free radioligand is separated from bound ligand by rapid filtration through a glass fiber filter (IH-201-HA) using an Inotech cell harvester. The filter is then washed several times with cold (4°C) binding buffer lacking BSA and protease inhibitors prior to counting in an LKB gamma master counter (78% efficiency). Whatman GFC filters presoaked in 0.3% polyethylenimine (to decrease background) are used.
The IC50 values and Ki values are calculated using the well-known methods described by Y. Cheng and W. H. Prusoff, Biochem. Pharmacol. 22, 3099-3108 (1973), incorporated herein by reference thereto.

Test [2] has as its target T1, rat somatostatin receptor subtype 2 (SSTR2) (Rattus norvegicus, UniProt P30680).
T1 construct: expressed in transfected cells; host or cells: Saccharomyces cerevisiae LY364
Briefly: Yeast assay, somatostatin agonist activity (growth zone of modified yeast cells on histidine-free agar). The class given is cell-based. To be noted: rating on a scale of 1-5 from zone of growing cells; S. Cerevisiae LY364. As for the experimental part: In this evaluation, yeast cells which have been specifically modified to functionally express rat somatostatin receptor subtype 2 (SSTR2) on their cell surfaces are used. S. Cerevisiae LY364 cells are plated in a standard synthetic agar medium which lacks histidine. In the absence of a somatostatin receptor agonist, the auxotrophic (his3) cells are unable to grow. In the presence of somatostatin, or a somatostatin agonist, the expression of an enzyme (His3p: imidazole-glycerol phosphate dehydratase) which is essential for histidine biosynthesis is induced. The cells become competent to produce histidine, resulting in a zone of growing cells around the applied test compound. The zone is measured and the test compound is given an agonist rating on a scale of 1-5 wherein 1 is minimum agonist activity and 5 is maximum agonist activity.
SCD-ura-trp: • 1) To 500 mL water add: • 1.7 g YNB without amino acids and (NH4)2SO4 • 5.0 g (NH4)2SO4 • 0.7 g CSM-ura-trp • 2) To additional 500 mL water add: 20 g Dextrose • 3) Autoclave separately. Mix.
SCL-ura-trp: • 1) To 500 mL water add: • 1.7 g YNB without amino acids and (NH4)2SO4 • 5.0 g (NH4)2SO4 • 0.7 g CSM-ura-trp • 2) To additional 500 mL water add: 30 mL Lactic Acid • 3) Autoclave separately. Mix.
SCG-ura-trp: • 1) To 500 mL water add: • 1.7 g YNB without amino acids and (NH4)2SO4 • 5.0 g (NH4)2SO4 • 0.7 g CSM-ura-trp • 2) To additional 500 mL water add: 30 g D-Galactose • 3) Autoclave separately. Mix.
SCG-ura-trp-his agar medium, pH 6.8: • 1) To 500 mL water add: • 1.7 g YNB without amino acids and (NH4)2SO4 • 5.0 g (NH4)2SO4 • 0.7 g CSM-ura-trp-his • Stirring Bar • 2) Adjust pH to 6.8-6.9 by dropwise addition of conc. NH4OH • 3) To additional 500 mL water add: 30 g D-Galactose, 20 g Agar • 4) Autoclave separately. • 5) Stir to mix thoroughly. • 6) Equilibrate temperature to 55°C. YNB without amino acids and (NH4)2SO4, CSM-ura-trp, and CSM-ura-trp-his are manufactured by Bio101. Ammonium sulfate ((NH4)2SO4), Dextrose (D-glucose), D-Galactose, and Lactic Acid are manufactured by Sigma.
(§1) • 1) Inoculate 2 mL SCD-ura-trp liquid medium in Falcon 2051 tube with a single colony taken from a plate containing LY364 (MATa ura3-52 leu2 his3 trp1 lys2 ade2 far1:: LYS2 fus1:: FUS1-HIS3 gpal::hisG sst2::ADE2 bearing the SSTR2 expression plasmid, pJH2, and the G protein expression plasmid, pLP82)cells. • 2) Incubate overnight in a roller drum at 30°C.
(§2) Day 2. • 1) Harvest the cells by centrifugation (3 krpm, 5 min, room temp). • 2) Re-suspend with 5 mL of sterile water. • 3) Harvest again by centrifugation. • 4) Re-suspend in 5 mL SCL-ura-trp liquid medium. • 5) Incubate for 6 hours in a roller drum at 30°C. • 6) Harvest the cells again by centrifugation. • 7) Re-suspend in 5 mL SCG-ura-trp liquid medium. • 8) Incubate overnight in a roller drum at 30°C.
(§3) Day 3. • 1) Autoclave SCG-ura-trp-his pH 6.8 agar medium. • 2) Cool to 55°C in water bath. • 3) Add 1 mL of LY364 culture to 1 liter of agar medium. • 4) Stir vigorously for 1 min. • 5) Pour 150 mL each into five 500 cm^2 plates. • 6) Allow to cool on level surface. • 7) Apply test compound.
(§4) On day 3, add 5µL 1 mg/mL S-14 to each plate. Day 5. Begin checking plates for growth around applied compounds. Day 7. Growth in response to somatostatin should be readily observable. Rate extent of growth or inhibition of growth according to rating scale described hereinabove.

In test [3] the target is T1, rat somatostatin receptor subtype 2 (SSTR2). Briefly: Yeast assay, somatostatin antagonist activity (zone of no growth in presence of S-14). Set-up: key: 1 is minimum antagonist activity; 5 is maximum antagonist activity; -: When no activity is observed, the result is indicated by a dash. The following applies: rating on a scale of 1-5 from zone of no growth; 5µL of 1 mg/mL S-14 added to each plate; S. Cerevisiae LY364. The class given is cell-based. As for the experimental part:
To evaluate the somatostatin antagonist activity of a test compound, the above procedure is followed except on day 3, 5µL of 1 mg/mL of somatostatin, S-14, is added to each plate, before applying the test compound. If the test compound is an antagonist of somatostatin, then a zone of no growth will appear within the cell growth zone. This zone of no growth is measured and the test compound is given an antagonist rating on a scale of 1-5 wherein 1 is minimum antagonist activity and 5 is maximum antagonist activity.
The results are shown in Table I. When no activity is observed, the result is indicated by a dash.
as §1, §2, §3, §4

T1 sequence (P30680 whole entry): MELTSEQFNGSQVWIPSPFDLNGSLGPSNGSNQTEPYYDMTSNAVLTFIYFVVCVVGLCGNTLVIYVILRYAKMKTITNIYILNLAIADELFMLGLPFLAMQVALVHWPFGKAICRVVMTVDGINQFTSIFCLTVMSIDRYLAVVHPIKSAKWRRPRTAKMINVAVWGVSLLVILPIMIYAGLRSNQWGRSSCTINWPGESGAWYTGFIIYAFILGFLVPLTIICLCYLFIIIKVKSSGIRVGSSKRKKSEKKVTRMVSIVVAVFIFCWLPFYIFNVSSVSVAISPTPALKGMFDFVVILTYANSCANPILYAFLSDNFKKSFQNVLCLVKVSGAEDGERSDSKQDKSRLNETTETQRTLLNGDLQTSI
Sequence of SSTR2 (P30680 whole entry): as above

One may read the IC50 as the midpoint of a concentration-inhibition curve. As a reminder, the Ki is a dissociation constant, usually derived from enzyme kinetics or from competition with a known ligand. Take `C[C@@H](O)[C@@H]1NC(=O)[C@H](CCCCN)NC(=O)[C@@H](Cc2c[nH]c3ccccc23)NC(=O)[C@H](Cc2ccc(O)cc2)NC(=O)[C@H](NC(=O)[C@@H](N)Cc2ccc(I)cc2)CSSC[C@@H](C(=O)N[C@@H](Cc2ccc(O)cc2)C(N)=O)NC1=O`: in test [1], the half-maximal inhibitory concentration (IC50) stood at 0.6 nM and the inhibition constant (Ki) is 0.26 nM.

For the compound `C[C@@H](O)[C@@H]1NC(=O)[C@H](CCCCN)NC(=O)[C@@H](Cc2c[nH]c3ccccc23)NC(=O)[C@H](Cc2ccc(O)cc2)NC(=O)[C@H](NC(=O)[C@@H](N)Cc2ccc3ccccc3c2)CSSC[C@@H](C(=O)N[C@@H](Cc2ccc(O)cc2)C(N)=O)NC1=O` (H-[2Nal][dC]Y[dW]KTCY-NH2; disulfide 2-7 (inferred); N-terminus assumed), the “Yeast Assay Agonist” value in test [2] is reported as “-”. Further, in test [3], the “Yeast Assay Antagonist” value is 1.

For `C[C@@H](O)[C@@H]1NC(=O)[C@H](CCCNC(=N)N)NC(=O)[C@@H](Cc2c[nH]c3ccccc23)NC(=O)[C@H](Cc2ccc(O)cc2)NC(=O)[C@H](NC(=O)[C@@H](N)Cc2ccc([N+](=O)[O-])cc2)CSSC[C@@H](C(=O)N[C@@H](Cc2ccc(O)cc2)C(N)=O)NC1=O` (H-[Phe(4-NO2)][dC]Y[dW]RTCY-NH2; disulfide 2-7 (inferred)), the “Yeast Assay Agonist” value in test [2] is on record as “-”. Moreover, the “Yeast Assay Antagonist” value in test [3] was determined as 2.

As for `CC(=O)N[C@@H](Cc1ccc(I)cc1)C(=O)N[C@@H]1CSSC[C@@H](C(=O)N[C@H](Cc2ccc(O)cc2)C(N)=O)NC(=O)[C@H]([C@@H](C)O)NC(=O)[C@H](CCCCN)NC(=O)[C@@H](Cc2c[nH]c3ccccc23)NC(=O)[C@H](Cc2ccc(O)cc2)NC1=O`, the “Yeast Assay Agonist” value in test [2] is given as “-”. In addition, the “Yeast Assay Antagonist” value in test [3] was found to be 4. In test [1], the IC50 came out at 6 nM and the Ki is 2.8 nM.

Consider `CC(=O)N[C@@H](Cc1ccc(I)cc1)C(=O)N[C@@H]1CSSC[C@@H](C(=O)N[C@@H](Cc2ccc(O)cc2)C(N)=O)NC(=O)[C@H]([C@@H](C)O)NC(=O)[C@H](CCCCN)NC(=O)[C@@H](Cc2c[nH]c3ccccc23)NC(=O)[C@H](Cc2ccc(O)cc2)NC1=O`, for which, in test [2], the “Yeast Assay Agonist” value is listed as “-”. In test [3], the “Yeast Assay Antagonist” value worked out at 1.

As for `NCCCC[C@@H]1NC(=O)[C@@H](Cc2c[nH]c3ccccc23)NC(=O)[C@H](Cc2ccc(O)cc2)NC(=O)[C@H](NC(=O)[C@@H](N)Cc2ccc([N+](=O)[O-])cc2)CSSC[C@@H](C(=O)N[C@@H](Cc2ccc3ccccc3c2)C(N)=O)NC(=O)[C@H](CO)NC1=O` (H-[Phe(4-NO2)][dC]Y[dW]KSC[2Nal]-NH2; disulfide 2-7), in test [1], the IC50 was determined as 10 nM and the inhibitory constant (Ki) is 4.44 nM.

Take `CC(C)[C@@H]1NC(=O)[C@H](CCCCN)NC(=O)[C@@H](Cc2c[nH]c3ccccc23)NC(=O)[C@H](Cc2ccc(O)cc2)NC(=O)[C@H](NC(=O)[C@H](N)Cc2ccc([N+](=O)[O-])cc2)CSSC[C@@H](C(=O)N[C@@H](Cc2ccc(O)cc2)C(N)=O)NC1=O` (H-[dPhe(4-NO2)][dC]Y[dW]KVCY-NH2; disulfide 2-7): in test [1], the IC50 is 39 nM and the Ki was 17.3 nM.

Regarding `CC(C)[C@@H]1NC(=O)[C@H](CCCN)NC(=O)[C@@H](Cc2c[nH]c3ccccc23)NC(=O)[C@H](Cc2ccc(O)cc2)NC(=O)[C@H](NC(=O)[C@@H](N)Cc2ccc([N+](=O)[O-])cc2)CSSC[C@@H](C(=O)N[C@@H](Cc2ccc(O)cc2)C(N)=O)NC1=O` (H-[Phe(4-NO2)][dC]Y[dW][Orn]VCY-NH2; disulfide 2-7), in test [1], the IC50 was 113 nM and the Ki was 50.2 nM.
